Measured values: patent publication US11357779B2 (G1 Therapeutics, Inc., priority 2018, dated 2022)
Read-outs that look alike come from different tables or passages of the source.

Assays:
[1] = Pharmacokinetics of Compound I in healthy volunteers after a single dose of Form B of Compound II; format: in vivo, human; conditions: for AUC(0-inf) / Cmax / Tmax / half-life / Vd/F: human, oral; for Vd/F: read-out: Vz/F
Description: Table 84 provides the pharmacokinetic parameters of Compound I upon administration of a single dose of Form B of Compound II (48, 100, 200, 300, 400, or 600 mg) in healthy volunteers. Blood samples for analysis of Compound I were collected pre-dose and 0.25, 0.5, 1, 1.5, 2, 3, 4, 6, 8, 12, 24, 36, 48, 72, and 96 hours post-dose.

[2] = clinical; conditions: human, in vivo
[3] = tested on: ME-016 tumor; assay: Murine BRAFmut melanoma PDX model, tumor growth and survival; format: in vivo; conditions: ME-016 tumor-containing mice; Compound I 100 mg/kg, dabrafenib 25 mg/kg, trametinib 1 mg/kg
Description: Mice containing a ME-016 tumor were treated with vehicle, Compound I (100 mg/kg), dabrafenib (25 mg/kg), trametinib (1 mg/kg), Compound I+dabrafenib, Compound I+trametinib, dabrafenib+trametinib, and Compound I+dabrafenib+trametinib.

[4] = TG and TG-IR analysis of Form B; format: physicochemical
Description: The TG analyses were performed using a TA Instrument Q5000 thermogravimetric analyzer. Temperature calibration was performed using nickel and Alumel. The sample was placed in a platinum pan and inserted into the TG furnace. The furnace was heated under a nitrogen purge to 350° C. at a rate of 10° C./min.
Thermogravimetric infrared (TG-IR) analysis was performed on a TA Instruments Q5000 IR thermogravimetric (TG) analyzer interfaced to a Magna-IR 560@ Fourier transform infrared (FT-IR) spectrophotometer (Thermo Nicolet) equipped with an Ever-Glo mid/far IR source, a potassium bromide (KBr) beamsplitter, and a mercury cadmium telluride (MCT-A) detector. The FT-IR wavelength verification was performed using polystyrene, and the TG calibration standards were nickel and Alumel™. The sample was placed in a platinum sample pan and the pan was inserted into the TG furnace. The TG instrument was started first, immediately followed by the FT-IR instrument. The TG instrument was operated under a flow of helium at 90 and 10 cc/minute for the purge and balance, respectively. The furnace was heated under helium at a rate of 20° C./minute to a final temperature of approximately 140° C. IR spectra were collected approximately every 32 seconds for approximately 7.5 minutes. Each IR spectrum represents 32 co-added scans collected at a spectral resolution of 4 cm-1. Volatiles were identified from a search of the High Resolution Nicolet Vapor Phase spectral library.
A TG-IR experiment was carried out on pure Form B (Sample 11 from the small-scale slurry experiments) at […] in an effort to investigate the stability of Form B at elevated temperature by monitoring potential release of hydrogen chloride.

[5] = Six- and twelve-month stability study of Form B at 25° C./60% RH and 40° C./75% RH; format: physicochemical
Description: Form B was stored at 25° C./60% RH for twelve months and at 40° C./75% RH for six months.

[6] = blood, single 100 mg dose of Form B of Compound II
[7] = blood, single 200 mg dose of Form B of Compound II
[8] = blood, single 300 mg dose of Form B of Compound II
[9] = plasma, single 48 mg dose of Form B of Compound II
[10] = plasma, single 400 mg dose of Form B of Compound II
[11] = plasma, single 600 mg dose of Form B of Compound II

## CC(C)N1CCN(c2ccc(Nc3ncc4cc5n(c4n3)C3(CCCCC3)CNC5=O)nc2)CC1 [Compound I, 2′-((5-(4-isopropylpiperazin-1-yl)pyridin-2-yl)amino)-7′,8′-dihydro-6′H-spiro[cyclohexane-1,9′-pyrazino[1′,2′:1,5]pyrrolo[2,3-d]pyrimidin]-6′-one]
[1]; [6]
  AUC(0-inf): 60.2 ng·h/mL
  Cmax: 9.23 ng/mL
  Tmax: 2 h
  half-life: 283 min
  Vd/F: 11300 L
[1]; [7]
  AUC(0-inf): 275 ng·h/mL
  Cmax: 29.3 ng/mL
  Tmax: 3 h
  half-life: 828 min
  Vd/F: 14500 L
[1]; [8]
  AUC(0-inf): 349 ng·h/mL
  Cmax: 27 ng/mL
  Tmax: 3.5 h
  half-life: 924 min
  Vd/F: 19100 L
[1]; blood, single 400 mg dose of Form B of Compound II
  Tmax: 5 h
[1]; [9]
  AUC(0-inf): 20.4 ng·h/mL
  Cmax: 3.65 ng/mL
  Tmax: 2 h
  half-life: 184 min
  Vd/F: 10400 L
[1]; [10]
  AUC(0-inf): 432 ng·h/mL
  Cmax: 26.3 ng/mL
  half-life: 894 min
  Vd/F: 19900 L
[1]; [11]
  AUC(0-inf): 886 ng·h/mL
  Cmax: 59 ng/mL
  Tmax: 6 h
  half-life: 1030 min
  Vd/F: 16800 L
[1]; single 48 mg dose of Form B of Compound II
  CL/F: 2354 L/h
[1]; single 100 mg dose of Form B of Compound II
  CL/F: 1660 L/h
[1]; single 200 mg dose of Form B of Compound II
  CL/F: 727 L/h
[1]; single 300 mg dose of Form B of Compound II
  CL/F: 861 L/h
[1]; single 400 mg dose of Form B of Compound II
  CL/F: 926 L/h
[1]; single 600 mg dose of Form B of Compound II
  CL/F: 677 L/h
[2]; 200 mg
  AUC(0-t): 229 ng·h/mL
[2]; 300 mg
  AUC(0-t): 592 ng·h/mL
[2]; 400 mg
  AUC(0-t): 278 ng·h/mL
[2]; 500 mg
  AUC(0-t): 607 ng·h/mL
[2]; 650 mg
  (AUC0-24,ss)/ANC: 0.89
  AUC(0-t): 956 ng·h/mL
[3]
  Median OS: 42.5 days

## CC(C)N1CCN(c2ccc(Nc3ncc4cc5n(c4n3)C3(CCCCC3)CNC5=O)nc2)CC1 [Compound II, 2′-((5-(4-isopropylpiperazin-1-yl)pyridin-2-yl)amino)-7′,8′-dihydro-6′H-spiro[cyclohexane-1,9′-pyrazino[1′,2′:1,5]pyrrolo[2,3-d]pyrimidin]-6′-one]
[4]; at 26-120° C., 125 mg/mL Slurry, 30° C., 43 h VF, washed, Air-dried for 3.5 h
  TGA weight loss: 10% weight loss at 26-
[4]; at 26-120° C., Vacuum drying, 22° C., 0.5 h, 15 in Hg, 22° C. 1.5 h, 27-28 in Hg
  TGA weight loss: 9.9% weight loss at 26-
[4]; at 31-120° C., Vacuum drying, 22° C., 2.0 h, 27 in Hg
  TGA weight loss: 7.5% weight loss at 31-

## CC(C)N1CCN(c2ccc(Nc3ncc4cc5n(c4n3)C3(CCCCC3)CNC5=O)nc2)CC1 [Form B]
[5]; 25° C. and 60% relative humidity
  long-term stability, time stable: at least 1 year
[5]; 25° C./60% RH, 0M
  Appearance: Yellow
  HPLC Purity: 99.5%
  Moisture (%): 4.9%
  XRPD: Form B
[5]; 25° C./60% RH, 3M
  Appearance: Yellow
  HPLC Purity: 99.5%
  Moisture (%): 4.07%
[5]; 25° C./60% RH, 6M
  Appearance: Yellow
  HPLC Purity: 99.5%
  Moisture (%): 7.53%
[5]; 25° C./60% RH, 9M
  Appearance: Yellow
  HPLC Purity: 99.6%
  Moisture (%): 7.29%
[5]; 25° C./60% RH, 12M
  Appearance: Yellow
  HPLC Purity: 99.5%
  Moisture (%): 7.48%
  XRPD: Form B
[5]; 25° C./60% RH, twelve months
  XRPD spectrum at the longest time point studied: conformed to the reference spectrum
  purity at the longest time point studied: 99.5%
[5]; 40° C./75% RH, 0M
  Appearance: Yellow solid
  HPLC Purity: 99.5%
  Moisture (%): 4.9%
  XRPD: Form B
[5]; 40° C./75% RH, 1M
  Appearance: Yellow solid
  HPLC Purity: 99.5%
  Moisture (%): 2.75%
[5]; 40° C./75% RH, 3M
  Appearance: Yellow solid
  HPLC Purity: 99.5%
  Moisture (%): 7.47%
  XRPD: Form B
[5]; 40° C./75% RH, 6M
  Appearance: Yellow solid
  HPLC Purity: 99.5%
  Moisture (%): 7.53%
  XRPD: Form B
[5]; 40° C./75% RH, six months
  XRPD spectrum at the longest time point studied: conformed to the reference spectrum
  purity at the longest time point studied: 99.5%
